Assay [1] deals with thapsigargin-induced IFN-g production in human whole blood. The format is cell-based. Conditions: read-out: Analogue Activity (IC50) WB/IFNg.
For another assay, the target named is human Kv1.3 (Homo sapiens, UniProt P22001). It counts as cell-based. On the set-up: expressed in transfected cells.
Assay [2] concerns thapsigargin-induced IL-2 production in human whole blood. Conditions: read-out: Analogue Activity (IC50) WB/IL-2.

SMILES strings stand for the structures. Bridge positions count the residues as written; N and C are the ends. Peptide text beside a SMILES is read from it.

Chain of human Kv1.3 (P22001 whole entry): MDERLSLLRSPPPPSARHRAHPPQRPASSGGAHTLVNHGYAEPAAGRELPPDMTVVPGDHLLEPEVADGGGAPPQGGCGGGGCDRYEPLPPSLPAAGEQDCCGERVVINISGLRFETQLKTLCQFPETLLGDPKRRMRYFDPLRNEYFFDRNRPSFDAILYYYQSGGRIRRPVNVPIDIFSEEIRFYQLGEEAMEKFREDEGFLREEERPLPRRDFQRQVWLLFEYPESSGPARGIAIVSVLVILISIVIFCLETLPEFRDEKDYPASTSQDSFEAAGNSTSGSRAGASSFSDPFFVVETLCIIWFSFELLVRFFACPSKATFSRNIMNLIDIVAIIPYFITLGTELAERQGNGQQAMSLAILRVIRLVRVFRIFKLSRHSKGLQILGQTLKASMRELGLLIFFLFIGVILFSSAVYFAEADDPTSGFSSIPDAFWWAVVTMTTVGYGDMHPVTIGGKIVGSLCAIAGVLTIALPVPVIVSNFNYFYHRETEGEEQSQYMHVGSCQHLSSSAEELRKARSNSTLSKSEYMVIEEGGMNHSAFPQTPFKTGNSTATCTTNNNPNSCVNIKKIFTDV

In the case of `CC[C@H](C)[C@@H]1NC(=O)[C@H](CCCCN)NC(=O)[C@@H](NC(=O)[C@H](CCCCN)NC(=O)[C@@H](NC(=O)[C@H](CC(N)=O)NC(=O)[C@@H](NC(=O)[C@@H](NC(=O)[C@@H](NC(=O)CN)C(C)C)[C@@H](C)CC)[C@@H](C)CC)C(C)C)CSSC[C@@H]2NC(=O)[C@H](C)NC(=O)CNC(=O)[C@H](Cc3ccccc3)NC(=O)[C@H](CCCNC(=N)N)NC(=O)[C@H](CCSC)NC(=O)CNC(=O)[C@H](C)NC(=O)[C@H](CCCCN)NC(=O)[C@H](CCCCN)NC(=O)[C@@H]3CSSC[C@@H](C(=O)N[C@H](C(=O)N4CCC[C@H]4C(=O)N[C@@H](CCCCN)C(=O)O)[C@@H](C)O)NC(=O)[C@H](Cc4c[nH]cn4)NC(=O)[C@H](CSSC[C@H](NC(=O)[C@H](CCC(N)=O)NC(=O)[C@H](CCCNC(=N)N)NC(=O)[C@H](CO)NC1=O)C(=O)N[C@@H](CC(C)C)C(=O)N[C@@H](CCC(=O)O)C(=O)N1CCC[C@H]1C(=O)N3)NC(=O)[C@H](CCCCN)NC(=O)CNC(=O)[C@H](CC(N)=O)NC(=O)[C@H](CCSC)NC2=O` [K27A] (H-GVIINVKCKISRQCLEPCKKAGMRFGACMNGKCHCTPK-OH; disulfide 8-28, 14-33, 18-35), the IC50 turned out to be 1.58 nM in assay [1] and 1.23 nM in assay [2]. Further, the “Kv1.3 Selectivity (= Kv1.1/Kv.3 IC50)” value at human Kv1.3 is given as 35.

As for `CC[C@H](C)[C@@H]1NC(=O)[C@H](CCCCN)NC(=O)[C@@H](NC(=O)[C@H](CCCCN)NC(=O)[C@@H](NC(=O)[C@H](CC(N)=O)NC(=O)[C@@H](NC(=O)[C@@H](NC(=O)[C@@H](NC(=O)CN)C(C)C)[C@@H](C)CC)[C@@H](C)CC)C(C)C)CSSC[C@@H]2NC(=O)[C@H](CCCCN)NC(=O)CNC(=O)[C@H](Cc3ccccc3)NC(=O)[C@H](CCCNC(=N)N)NC(=O)[C@H](CCSC)NC(=O)CNC(=O)[C@H](C)NC(=O)[C@H](CCCCN)NC(=O)[C@H](CCCCN)NC(=O)[C@@H]3CSSC[C@@H](C(=O)N[C@H](C(=O)N4CCC[C@H]4C(=O)N[C@@H](CCCCN)C(=O)O)[C@@H](C)O)NC(=O)[C@H](Cc4c[nH]cn4)NC(=O)[C@H](CSSC[C@H](NC(=O)[C@H](CCC(N)=O)NC(=O)[C@H](CCCNC(=N)N)NC(=O)[C@H](CO)NC1=O)C(=O)N[C@@H](CC(C)C)C(=O)N[C@@H](CCC(=O)O)C(=O)N1CCC[C@H]1C(=O)N3)NC(=O)[C@H](CCCCN)NC(=O)CNC(=O)[C@H](CC(N)=O)NC(=O)[C@H](CCCNC(=N)N)NC2=O` [M29R] (H-GVIINVKCKISRQCLEPCKKAGMRFGKCRNGKCHCTPK-OH; disulfide 8-28, 14-33, 18-35), the IC50 was 7.68 nM in assay [1] and 11.7 nM in assay [2]. In addition, on human Kv1.3, the “Kv1.3 Selectivity (= Kv1.1/Kv.3 IC50)” value is 30.

Consider `CC[C@H](C)[C@@H]1NC(=O)[C@H](CCCCN)NC(=O)[C@@H](NC(=O)[C@H](CCCCN)NC(=O)[C@@H](NC(=O)[C@H](CC(N)=O)NC(=O)[C@@H](NC(=O)[C@@H](NC(=O)[C@@H](NC(=O)CN)C(C)C)[C@@H](C)CC)[C@@H](C)CC)C(C)C)CSSC[C@@H]2NC(=O)[C@H](CCCCN)NC(=O)CNC(=O)[C@H](Cc3ccccc3)NC(=O)[C@H](CCCNC(=N)N)NC(=O)[C@H](CCSC)NC(=O)CNC(=O)[C@H](C)NC(=O)[C@H](CCCCN)NC(=O)[C@H](CCCCN)NC(=O)[C@@H]3CSSC[C@@H](C(=O)N[C@H](C(=O)N4CCC[C@H]4C(=O)N[C@@H](CCCCN)C(=O)O)[C@@H](C)O)NC(=O)[C@H](CCC(=O)O)NC(=O)[C@H](CSSC[C@H](NC(=O)[C@H](CCC(N)=O)NC(=O)[C@H](CCCNC(=N)N)NC(=O)[C@H](CO)NC1=O)C(=O)N[C@@H](CC(C)C)C(=O)N[C@@H](CCC(=O)O)C(=O)N1CCC[C@H]1C(=O)N3)NC(=O)[C@H](CCCCN)NC(=O)CNC(=O)[C@H](CC(N)=O)NC(=O)[C@H](CCSC)NC2=O` [H34E] (H-GVIINVKCKISRQCLEPCKKAGMRFGKCMNGKCECTPK-OH; disulfide 8-28, 14-33, 18-35), for which the IC50 is 2.38 nM in assay [1] and 1.62 nM in assay [2]. The “Kv1.3 Selectivity (= Kv1.1/Kv.3 IC50)” value on human Kv1.3 was 30.

Consider `CC[C@H](C)[C@@H]1NC(=O)[C@H](CCCCN)NC(=O)[C@@H](NC(=O)[C@H](CCCCN)NC(=O)[C@@H](NC(=O)[C@H](CC(N)=O)NC(=O)[C@@H](NC(=O)[C@@H](NC(=O)[C@@H](NC(=O)CN)C(C)C)[C@@H](C)CC)[C@@H](C)CC)C(C)C)CSSC[C@@H]2NC(=O)[C@H](CCCCN)NC(=O)CNC(=O)[C@H](Cc3ccccc3)NC(=O)[C@H](CCCNC(=N)N)NC(=O)[C@H](CCSC)NC(=O)CNC(=O)[C@H](C)NC(=O)[C@H](CCCCN)NC(=O)[C@H](CCCCN)NC(=O)[C@@H]3CSSC[C@@H](C(=O)N[C@H](C(=O)N4CCC[C@H]4C(=O)N[C@@H](CCCCN)C(=O)O)[C@@H](C)O)NC(=O)[C@H](Cc4c[nH]cn4)NC(=O)[C@H](CSSC[C@H](NC(=O)[C@H](CCC(N)=O)NC(=O)[C@H](CCCNC(=N)N)NC(=O)[C@H](CO)NC1=O)C(=O)N[C@@H](CC(C)C)C(=O)N[C@@H](CCC(=O)O)C(=O)N1CCC[C@H]1C(=O)N3)NC(=O)[C@H](CCCCN)NC(=O)CNC(=O)[C@H](CC(N)=O)NC(=O)[C@H](C)NC2=O` [M29A] (H-GVIINVKCKISRQCLEPCKKAGMRFGKCANGKCHCTPK-OH; disulfide 8-28, 14-33, 18-35), for which the IC50 in assay [1] was found to be 0.292 nM; on human Kv1.3 (read-out: Kv1.3 (IC50)), 0.033 nM; in assay [2] it was 0.447 nM. Moreover, the “Kv1.3 Selectivity (= Kv1.1/Kv.3 IC50)” value at human Kv1.3 was found to be 105.

`CC[C@H](C)[C@@H]1NC(=O)[C@H](CCCCN)NC(=O)[C@@H](NC(=O)[C@H](CCCCN)NC(=O)[C@@H](NC(=O)[C@H](CC(N)=O)NC(=O)[C@@H](NC(=O)[C@@H](NC(=O)[C@@H](NC(=O)CN)C(C)C)[C@@H](C)CC)[C@@H](C)CC)C(C)C)CSSC[C@@H]2NC(=O)[C@H](CCCCN)NC(=O)CNC(=O)[C@H](Cc3ccccc3)NC(=O)[C@H](CCCNC(=N)N)NC(=O)[C@H](CCSC)NC(=O)CNC(=O)[C@H](C)NC(=O)[C@H](CCCCN)NC(=O)[C@H](CCCCN)NC(=O)[C@@H]3CSSC[C@@H](C(=O)N[C@H](C(=O)N4CCC[C@H]4C(=O)N[C@@H](CCCCN)C(=O)O)[C@@H](C)O)NC(=O)[C@H](Cc4c[nH]cn4)NC(=O)[C@H](CSSC[C@H](NC(=O)[C@H](CCC(N)=O)NC(=O)[C@H](CCCNC(=N)N)NC(=O)[C@H](CO)NC1=O)C(=O)N[C@@H](CC(C)C)C(=O)N[C@@H](CCC(=O)O)C(=O)N1CCC[C@H]1C(=O)N3)NC(=O)[C@H](CCCCN)NC(=O)CNC(=O)[C@H](C)NC(=O)[C@H](CCSC)NC2=O` [N30A] (H-GVIINVKCKISRQCLEPCKKAGMRFGKCMAGKCHCTPK-OH; disulfide 8-28, 14-33, 18-35): the values for the IC50 in assay [1] and in assay [2] were 0.637 nM and 0.971 nM, respectively. For the same molecule, the “Kv1.3 Selectivity (= Kv1.1/Kv.3 IC50)” value on human Kv1.3 is 14.

Regarding `CC[C@H](C)[C@@H]1NC(=O)[C@H](CCCCN)NC(=O)[C@@H](NC(=O)[C@H](CCCCN)NC(=O)[C@@H](NC(=O)[C@H](CC(N)=O)NC(=O)[C@@H](NC(=O)[C@@H](NC(=O)[C@@H](NC(=O)CN)C(C)C)[C@@H](C)CC)[C@@H](C)CC)C(C)C)CSSC[C@@H]2NC(=O)[C@H](CCCCN)NC(=O)CNC(=O)[C@H](Cc3ccccc3)NC(=O)[C@H](CCCNC(=N)N)NC(=O)[C@H](CCSC)NC(=O)CNC(=O)[C@H](C)NC(=O)[C@H](CCCCN)NC(=O)[C@H](CCCCN)NC(=O)[C@@H]3CSSC[C@@H](C(=O)N[C@H](C(=O)N4CCC[C@H]4C(=O)N[C@@H](CCCCN)C(=O)O)[C@@H](C)O)NC(=O)[C@H](C)NC(=O)[C@H](CSSC[C@H](NC(=O)[C@H](CCC(N)=O)NC(=O)[C@H](CCCNC(=N)N)NC(=O)[C@H](CO)NC1=O)C(=O)N[C@@H](CC(C)C)C(=O)N[C@@H](CCC(=O)O)C(=O)N1CCC[C@H]1C(=O)N3)NC(=O)[C@H](CCCCN)NC(=O)CNC(=O)[C@H](CC(N)=O)NC(=O)[C@H](CCSC)NC2=O` [H34A] (H-GVIINVKCKISRQCLEPCKKAGMRFGKCMNGKCACTPK-OH; disulfide 8-28, 14-33, 18-35), the IC50 in assay [1] was determined as 0.0573 nM; in assay [2] it was 0.0725 nM. Moreover, the “Kv1.3 Selectivity (= Kv1.1/Kv.3 IC50)” value at human Kv1.3 is 797.

Regarding `CC[C@H](C)[C@@H]1NC(=O)[C@H](CCCCN)NC(=O)[C@@H](NC(=O)[C@H](CCCCN)NC(=O)[C@@H](NC(=O)[C@H](CC(N)=O)NC(=O)[C@@H](NC(=O)[C@@H](NC(=O)[C@@H](NC(=O)CN)C(C)C)[C@@H](C)CC)[C@@H](C)CC)C(C)C)CSSC[C@@H]2NC(=O)[C@H](CCCCN)NC(=O)CNC(=O)[C@H](Cc3ccccc3)NC(=O)[C@H](CCCNC(=N)N)NC(=O)[C@H](CCSC)NC(=O)CNC(=O)[C@H](C)NC(=O)[C@H](CCCCN)NC(=O)[C@H](CCCCN)NC(=O)[C@@H]3CSSC[C@@H](C(=O)N[C@@H](CCC(=O)O)C(=O)N4CCC[C@H]4C(=O)N[C@@H](CCCCN)C(=O)O)NC(=O)[C@H](Cc4c[nH]cn4)NC(=O)[C@H](CSSC[C@H](NC(=O)[C@H](CCC(N)=O)NC(=O)[C@H](CCCNC(=N)N)NC(=O)[C@H](CO)NC1=O)C(=O)N[C@@H](CC(C)C)C(=O)N[C@@H](CCC(=O)O)C(=O)N1CCC[C@H]1C(=O)N3)NC(=O)[C@H](CCCCN)NC(=O)CNC(=O)[C@H](CC(N)=O)NC(=O)[C@H](CCSC)NC2=O` [T36E] (H-GVIINVKCKISRQCLEPCKKAGMRFGKCMNGKCHCEPK-OH; disulfide 8-28, 14-33, 18-35), the IC50 in assay [1] is 2.42 nM; in assay [2], 1.74 nM. For the same molecule, on human Kv1.3, the “Kv1.3 Selectivity (= Kv1.1/Kv.3 IC50)” value is reported as 44.

The values are drawn from patent US7820623B2 (priority 2006, dated 2010).
